US20230218631A1 (priority 2020, published 2023)

Columns and labels:
Assay type in all cases: in vivo
C57BL/6J mice [1] = test: Two-bottle choice ethanol drinking (non-stressed) under systemic UNC0642
Experimental: Animal Care. Adult male C57BL/6J mice (Jackson Laboratory, Bar Harbor, Me.) were singly housed in a climate-controlled environment (21° C.) on a 12h light-dark cycle. Animals were habituated to the housing environment for at least 7 days prior to use in experiments, and had food and water ad libitum. All drinking and behavioral experiments were performed during the dark cycle as described below, and were approved by the MUSC Institutional Animal Care and Use Committee (IACUC) in facilities accredited by the American Association for the Accreditation of Laboratory Animal Care (AAALAC). All procedures were conducted in accordance with the guidelines established by the National Institutes of Health and the National Research Council.
(§1) Systemic G9A inhibitor administration and stress-potentiated drinking. […] Mice were then divided into 2 even groups and given chronic injections of either vehicle or 4 mg/kg UNC0642 for 2 weeks similar to a previous in vivo study in mice (Wang et al., 2018). Next, following 3 days of withdrawal, control mice were injected with 5 mg/kg U50,488 only and chronic treated mice were given both U50,488 and UNC0642 in the same injection 30 minutes before the session. This test was repeated again the following day and then only vehicle injections were given to all mice for the next 3 days before two-bottle choice testing. Finally, after another 3 day withdrawal, an acute injection of UNC0642+U50,488 was given to the naïve control group while U50,488 alone was administered to the chronic UNC0642 group 30 minutes before drinking.
Systemic EHMT2/G9A Inhibition Suppresses Stress-induced Ethanol Drinking Since reducing EHMT2/G9A levels in the NAc blocked stress-regulated ethanol drinking in mice, we tested whether systemic delivery of a specific EHMT2/G9A methyltransferase inhibitor, UNC0642 (Liu et al, 2013), could block stress-potentiated ethanol drinking. Wild-type mice were allowed to drink ethanol for 2 weeks prior to repeated, daily injections of UNC0642 (4 mg/kg; i.p.) given 30 minutes prior to the 2-bottle choice sessions (FIG. 5A). […]

C57BL/6J mice [2] = test: U50,488 (kappa agonist) stress-potentiated two-bottle choice ethanol drinking under systemic UNC0642
Experimental: as §1
Systemic EHMT2/G9A Inhibition Suppresses Stress-induced Ethanol Drinking Since reducing EHMT2/G9A levels in the NAc blocked stress-regulated ethanol drinking in mice, we tested whether systemic delivery of a specific EHMT2/G9A methyltransferase inhibitor, UNC0642 (Liu et al, 2013), could block stress-potentiated ethanol drinking. Wild-type mice were allowed to drink ethanol for 2 weeks prior to repeated, daily injections of UNC0642 (4 mg/kg; i.p.) given 30 minutes prior to the 2-bottle choice sessions (FIG. 5A). […] Mice were then allowed to continue ethanol drinking for one additional week before the UNC0642-naïve mice (former vehicle control group) were injected with either vehicle or UNC0642 (4 mg/kg; i.p.) and tested for U50,488-potentiated ethanol drinking.
Since UNC0642 (4 mg/kg, i.p.) blocked stress-regulated ethanol drinking in mice as shown above, it was next tested whether this effect was dose-dependent and if it worked similarly in both sexes. There are reported sex/gender differences in the risk of developing several neuropsychiatric conditions, including AUD, SUD, and mood disorders, and while there was no a priori expectation of a sex-difference in UNC0642 efficacy in reducing stress-potentiated alcohol drinking, we wished to confirm that the treatment would be effective in both males and females. Similar to the studies described hereinabove (FIG. 5A), wild-type mice (both male and female) were allowed to drink ethanol for 2 weeks prior to repeated, daily injections of UNC0642 (4 mg/kg; 2 mg/kg, 1 mg/kg, or 0 mg/kg (vehicle), i.p.) given 30 minutes prior to the 2-bottle choice sessions. […]

wild-type mice = test: Dependence (CIE)-induced and forced swim stress+dependence escalated ethanol drinking under systemic UNC0642; details: chronic 4 mg/kg UNC0642 for 15 days
Experimental: Systemic G9A inhibitor administration and dependence-potentiated and stress+dependence-potentiated drinking. […] Mice were then divided into 4 even groups. Mice were exposed to Air/No stress, Air/FSS, CIE/No Stress, or CIE/stress in a 2×2 design to assess the effects of UNC0642 on dependence drinking alone and dependence+stress. Chronic injections of either vehicle or 4 mg/kg UNC0642 were started during the “test 4” phase in FIG. 6A and continued for 15 days. Ethanol consumed was recorded daily.
Since systemic delivery of UNC0642 blocked stress-regulated ethanol drinking in mice, we tested whether systemic delivery of UNC0642 could block dependence-induced escalation of ethanol drinking also. […] Mice were then divided into 4 evenly matched groups. Mice were exposed to Air/No stress, Air/FSS, CIE/No Stress, or CIE/stress to assess the effects of UNC0642 on ethanol drinking influenced by alcohol dependence alone or stress+dependence. Chronic injections of either vehicle or 4 mg/kg UNC0642 were started during the “test 4” phase illustrated in FIG. 6A and continued for 15 days.

COc1cc2c(NC3CCN(C(C)C)CC3)nc(N3CCC(F)(F)CC3)nc2cc1OCCCN1CCCC1 [UNC0642, 2-(4,4-Difluoropiperidin-1-yl)-6-methoxy-N-[1-(propan-2-yl)piperidin-4-yl]-7-[3-(pyrrolidin-1-yl)propoxy]quinazolin-4-amine]
ethanol drinking during the first week of daily UNC0642 injections (week 3) (C57BL/6J mice [1]; 4 mg/kg i.p. daily, 30 min before 2-bottle choice session, vs vehicle, FIG. 5B): significant reduction | ethanol intake in the second week of daily drug treatments (week 4) (C57BL/6J mice [1]; 4 mg/kg i.p. daily, vs vehicle control, FIG. 5B): no difference | baseline two-bottle choice alcohol drinking during daily UNC0642 injections (C57BL/6J mice [1]; 1, 2 or 4 mg/kg i.p. daily, male and female mice, weeks 3-5, FIG. 7A): no effect | U50,488-potentiated ethanol drinking, chronic UNC0642 2 mg/kg (C57BL/6J mice [2]; 2 mg/kg i.p. daily, male and female mice, both sexes similarly, FIG. 7B): suppressed | U50,488-potentiated ethanol drinking, chronic UNC0642 4 mg/kg (C57BL/6J mice [2]; 4 mg/kg i.p. daily, male and female mice, both sexes similarly, FIG. 7B): suppressed | U50,488-potentiated ethanol drinking, chronic UNC0642 treatment (C57BL/6J mice [2]; chronic 4 mg/kg i.p. for 2 weeks, U50,488 5 mg/kg i.p. 30 min before session, FIG. 5C): suppressed | U50,488-potentiated ethanol drinking, single (acute) injection of UNC0642 (C57BL/6J mice [2]; single 4 mg/kg i.p. with U50,488 5 mg/kg in UNC0642-naive mice, FIG. 5D): failed to influence stress-potentiated drinking | dependence-induced ethanol drinking during test 5 week (wild-type mice; CIE vs Air, no stress, FIG. 6B left panel): significant reduction | stress+dependence ethanol drinking, test 5 (wild-type mice; forced swim stress plus CIE, FIG. 6B right panel): also suppressed
